Test results as given in the NIST ThermoML archive (doi:10.1021/je060343y).

Assays:
[1] = 101 kPa, Liquid
[2] = φn = volume fraction of the nth substance listed; details: 101 kPa, Liquid

CNC(C)=O [N-methylacetamide]
[1]
Details	mass density [kg/m3]	speed of sound [m/s]
303.15 K	951.3	1367
308.15 K	945.9	1362
313.15 K	943.6	1334
318.15 K	939.9	1319

CNC(C)=O [N-methylacetamide] + CCOC(=O)CC#N
[2], φ1 = 1
Details	mass density [kg/m3]	speed of sound [m/s]
303.15 K	951.3	1367
308.15 K	945.9	1362
313.15 K	943.6	1334
318.15 K	939.9	1319

CNC(C)=O [N-methylacetamide] + CCOC(=O)CCl
[2], φ1 = 1
Details	mass density [kg/m3]	speed of sound [m/s]
303.15 K	951.3	1367
308.15 K	945.9	1362
313.15 K	943.6	1334
318.15 K	939.9	1319

CNC(C)=O [N-methylacetamide] + CCOC(C)=O
[2]
Details	mass density [kg/m3]	speed of sound [m/s]
303.15 K, φ1 = 0.0538	893.87	1132
303.15 K, φ1 = 0.1843	903.06	1167
303.15 K, φ1 = 0.2972	910.76	1197
303.15 K, φ1 = 0.3991	917.49	1223
303.15 K, φ1 = 0.4982	923.67	1248
303.15 K, φ1 = 0.594	929.3	1271
303.15 K, φ1 = 0.6955	935.03	1295
303.15 K, φ1 = 0.7437	937.68	1306
303.15 K, φ1 = 0.9463	948.19	1354
303.15 K, φ1 = 1	951.3	1367
308.15 K, φ1 = 0.0537	887.58	1114
308.15 K, φ1 = 0.1841	896.86	1149
308.15 K, φ1 = 0.2969	904.58	1180
308.15 K, φ1 = 0.3988	911.43	1208
308.15 K, φ1 = 0.4979	917.94	1234
308.15 K, φ1 = 0.5937	923.93	1259
308.15 K, φ1 = 0.6952	930.02	1284
308.15 K, φ1 = 0.7434	932.86	1296
308.15 K, φ1 = 0.9488	943.96	1348
308.15 K, φ1 = 1	945.9	1362
313.15 K, φ1 = 0.0534	880.97	1097
313.15 K, φ1 = 0.1833	891.3	1132
313.15 K, φ1 = 0.2958	899.84	1161
313.15 K, φ1 = 0.3976	907.15	1188
313.15 K, φ1 = 0.4966	913.79	1214
313.15 K, φ1 = 0.5924	920.09	1238
313.15 K, φ1 = 0.6941	926.71	1263
313.15 K, φ1 = 0.7431	929.67	1274
313.15 K, φ1 = 0.946	941.22	1322
313.15 K, φ1 = 1	943.6	1334
318.15 K, φ1 = 0.0533	875.13	1074
318.15 K, φ1 = 0.1828	886.1	1113
318.15 K, φ1 = 0.2951	894.79	1144
318.15 K, φ1 = 0.3968	902.46	1172
318.15 K, φ1 = 0.4958	909.37	1198
318.15 K, φ1 = 0.5916	915.67	1223
318.15 K, φ1 = 0.6934	922.12	1249
318.15 K, φ1 = 0.7418	925.21	1261
318.15 K, φ1 = 0.9458	937.26	1309
318.15 K, φ1 = 1	939.9	1319

CCOC(C)=O [ethyl acetate]
[1]
Details	mass density [kg/m3]	speed of sound [m/s]
303.15 K	888.9	1119
308.15 K	882.6	1098
313.15 K	875.9	1081
318.15 K	869.6	1058

CCOC(C)=O [ethyl acetate] + CNC(C)=O
[2], φ2 = 0
Details	mass density [kg/m3]	speed of sound [m/s]
303.15 K	888.9	1119
308.15 K	882.6	1098
313.15 K	875.9	1081
318.15 K	869.6	1058

CCOC(=O)CCl [ethyl chloroethanoate]
[1]
Details	mass density [kg/m3]	speed of sound [m/s]
303.15 K	1139.29	1229
308.15 K	1132.5	1212
313.15 K	1125.9	1198
318.15 K	1119.9	1177

CCOC(=O)CCl [ethyl chloroethanoate] + CNC(C)=O
[2]
Details	mass density [kg/m3]	speed of sound [m/s]
303.15 K, φ2 = 0	1139.29	1229
303.15 K, φ2 = 0.0547	1128.33	1238
303.15 K, φ2 = 0.154	1110.27	1252
303.15 K, φ2 = 0.2473	1093.79	1265
303.15 K, φ2 = 0.2903	1085.92	1272
303.15 K, φ2 = 0.4356	1059.31	1293
303.15 K, φ2 = 0.5321	1041.12	1305
303.15 K, φ2 = 0.6203	1024.32	1317
303.15 K, φ2 = 0.7118	1006.88	1329
303.15 K, φ2 = 0.8656	977.31	1350
308.15 K, φ2 = 0	1132.5	1212
308.15 K, φ2 = 0.0547	1123.26	1221
308.15 K, φ2 = 0.154	1105.23	1235
308.15 K, φ2 = 0.2473	1088.2	1249
308.15 K, φ2 = 0.2902	1080.37	1256
308.15 K, φ2 = 0.4356	1053.83	1277
308.15 K, φ2 = 0.532	1036.02	1291
308.15 K, φ2 = 0.6202	1019.38	1304
308.15 K, φ2 = 0.7118	1002.05	1318
308.15 K, φ2 = 0.8656	972.28	1342
313.15 K, φ2 = 0	1125.9	1198
313.15 K, φ2 = 0.0545	1115.23	1207
313.15 K, φ2 = 0.1535	1098.23	1220
313.15 K, φ2 = 0.2466	1082.14	1233
313.15 K, φ2 = 0.2895	1074.53	1239
313.15 K, φ2 = 0.4347	1048.13	1259
313.15 K, φ2 = 0.5312	1030.46	1271
313.15 K, φ2 = 0.6194	1014.19	1283
313.15 K, φ2 = 0.7111	997.15	1296
313.15 K, φ2 = 0.8652	968.5	1317
318.15 K, φ2 = 0	1119.9	1177
318.15 K, φ2 = 0.0544	1109.19	1187
318.15 K, φ2 = 0.1533	1090.85	1202
318.15 K, φ2 = 0.2464	1073.98	1207
318.15 K, φ2 = 0.2892	1066.23	1212
318.15 K, φ2 = 0.4344	1040.02	1231
318.15 K, φ2 = 0.5308	1022.75	1244
318.15 K, φ2 = 0.6191	1007.06	1257
318.15 K, φ2 = 0.7108	990.68	1272
318.15 K, φ2 = 0.865	963.31	1296

CCOC(=O)CC#N [ethyl cyanoacetate]
[1]
Details	mass density [kg/m3]	speed of sound [m/s]
303.15 K	1051.4	1397
308.15 K	1046.5	1385
313.15 K	1040.8	1368
318.15 K	1034.7	1359

CCOC(=O)CC#N [ethyl cyanoacetate] + CNC(C)=O
[2]
Details	mass density [kg/m3]	speed of sound [m/s]
303.15 K, φ2 = 0	1051.4	1397
303.15 K, φ2 = 0.0529	1048.11	1396
303.15 K, φ2 = 0.186	1036.06	1391
303.15 K, φ2 = 0.2745	1027.82	1389
303.15 K, φ2 = 0.3672	1018.95	1386
303.15 K, φ2 = 0.4502	1010.93	1384
303.15 K, φ2 = 0.5435	1001.23	1380
303.15 K, φ2 = 0.5664	998.75	1379
303.15 K, φ2 = 0.7307	980.97	1375
303.15 K, φ2 = 0.8795	964.97	1370
308.15 K, φ2 = 0	1046.5	1385
308.15 K, φ2 = 0.0529	1041.91	1384
308.15 K, φ2 = 0.1862	1029.63	1380
308.15 K, φ2 = 0.2747	1021.42	1378
308.15 K, φ2 = 0.3675	1012.63	1375
308.15 K, φ2 = 0.4504	1004.44	1373
308.15 K, φ2 = 0.5438	994.68	1371
308.15 K, φ2 = 0.5666	992.26	1370
308.15 K, φ2 = 0.7309	974.66	1367
308.15 K, φ2 = 0.8796	958.76	1365
313.15 K, φ2 = 0	1040.8	1368
313.15 K, φ2 = 0.0528	1036.3	1366
313.15 K, φ2 = 0.1857	1024.28	1362
313.15 K, φ2 = 0.2741	1015.97	1359
313.15 K, φ2 = 0.3667	1007.36	1356
313.15 K, φ2 = 0.4497	999.41	1353
313.15 K, φ2 = 0.543	990.26	1349
313.15 K, φ2 = 0.5659	987.92	1348
313.15 K, φ2 = 0.7303	971.38	1343
313.15 K, φ2 = 0.8793	956.39	1337
318.15 K, φ2 = 0	1034.7	1359
318.15 K, φ2 = 0.0527	1030.52	1358
318.15 K, φ2 = 0.1854	1018.59	1356
318.15 K, φ2 = 0.2737	1010.48	1352
318.15 K, φ2 = 0.3663	1001.85	1348
318.15 K, φ2 = 0.4492	994.13	1345
318.15 K, φ2 = 0.5425	985.18	1341
318.15 K, φ2 = 0.5654	982.97	1340
318.15 K, φ2 = 0.7299	966.83	1332
318.15 K, φ2 = 0.8791	952.07	1324
